From patent US20260217651A1 (priority 2022, published 2026)
Like-named read-outs stand apart in the source and are kept apart here.

Columns and labels:
[1] = system: SD rats; experiment: animal or person; assay type: in vivo, rat; settings: iv; for minimal effective dose: Rattus norvegicus, read-out: Minimal effective anesthetic dose(mg/kg); for Onset time / Righting Reflex Duration / Sedation Duration: rat, in vivo
[2] = system: SD rats; experiment: animal or person; assay type: in vivo; settings: Rattus norvegicus, iv, read-out: Minimal effective analgesic dose(mg/kg)

Structure (SMILES)	minimal effective dose [1]	Onset time [1]	Righting Reflex Duration [1]	Sedation Duration [1]	minimal effective dose [2]
CC(C)OC(=O)C1(c2ccccc2)CCN(c2cc(C(C)C)c(O)c(C(C)C)c2)CC1 [Cpd-26]	5 to 10 mg/kg	0.98 to 1.77 min	12.33 to 28.05 min	26.52 to 182.97 min	5 to 10 mg/kg
CCOC(=O)C1(c2ccccc2)CCN(c2cc(C(C)C)c(O)c([C@H](C)C3CC3)c2)CC1 [Cpd-25]	5 to 10 mg/kg	1.28 to 2.95 min	3.45 to 6.43 min	17.48 to 23.03 min	5 to 10 mg/kg
CCOC(=O)N(c1cccc(C)c1)N1CCN(c2cc(C(C)C)c(O)c([C@H](C)C3CC3)c2)CC1 [Cpd-70]	10 to 20 mg/kg	0.38 to 1.07 min	5.02 to 39.35 min	48.32 to 106.60 min	10 to 20 mg/kg
CCCC(=O)N(c1ccccc1)C1CCN(c2cc(C(C)C)c(O)c(C(C)C)c2)CC1 [Cpd-13]	5 to 10 mg/kg	0.35 min	20.27 min	41.57 min	5 to 10 mg/kg
CCOC(=O)N(c1ccccc1)N1CCN(c2cc(C(C)C)c(O)c([C@@H](C)C3CC3)c2)CC1 [Cpd-105]	5 to 10 mg/kg	0.68 to 1.80 min	0.24 to 22.82 min	50.17 to 52.20 min	10 to 20 mg/kg
CCOC(=O)C1(c2cccc(OC)c2)CCN(c2cc(C(C)C)c(O)c(C(C)C)c2)CC1 [Cpd-39]	10 to 20 mg/kg	0.73 to 1.07 min	7.45 to 24.00 min	34.33 to 39.48 min	10 to 20 mg/kg
CCOC(=O)N(c1ccc(OC)c(OC)c1)N1CCN(c2cc(C(C)C)c(O)c(C(C)C)c2)CC1 [Cpd-96]	20 to 40 mg/kg	0.13 to 0.75 min	1.32 to 43.20 min	86.20 to 295.93 min	20 to 40 mg/kg
CCCOc1ccc(N(C(=O)OCC)N2CCN(c3cc(C(C)C)c(O)c(C(C)C)c3)CC2)cc1 [Cpd-99]	10 to 20 mg/kg	1.03 to 1.38 min	25.58 to 25.87 min	67.73 to 88.57 min	10 to 20 mg/kg
CCOC(=O)N(c1cccc(Cl)c1)N1CCN(c2cc(C(C)C)c(O)c([C@H](C)C3CC3)c2)CC1 [Cpd-69]	10 to 20 mg/kg	0.68 to 2.12 min	1.28 to 74.05 min	19.78 to 160.07 min	10 to 20 mg/kg
COc1ccc(C2(C(=O)OC(C)C)CCN(c3cc(C(C)C)c(O)c(C(C)C)c3)CC2)cc1 [Cpd-123]	20 to 40 mg/kg	0.77 min	24.08 min	75.50 min	20 to 40 mg/kg
CCOC(=O)N(Cc1ccc(OC)cc1)N1CCN(c2cc(C(C)C)c(O)c(C(C)C)c2)CC1 [Cpd-124]	20 to 40 mg/kg	0.15 to 0.68 min	2.83 to 65.08 min		20 to 40 mg/kg
CCOC(=O)N(c1ccc(SC)cc1)N1CCN(c2cc(C(C)C)c(O)c(C(C)C)c2)CC1 [Cpd-97]	5 to 10 mg/kg	0.20 to 0.60 min	5.25 to 32.28 min	31.60 to 83.28 min	10 to 20 mg/kg
CCOC(=O)N(c1ccc(OCC(C)C)cc1)N1CCN(c2cc(C(C)C)c(O)c(C(C)C)c2)CC1 [Cpd-104]	20 to 40 mg/kg	0.42 min	59.33 min	377.87 min	20 to 40 mg/kg
CCOC(=O)N(c1ccc(Cl)cc1)N1CCN(c2cc(C(C)C)c(O)c(C(C)C)c2)CC1 [Cpd-65]	10 to 20 mg/kg	0.92 to 1.17 min	11.30 to 16.67 min	101.42 to 123.97 min	10 to 20 mg/kg
CCOC(=O)N(c1ccc(C)cc1)N1CCN(c2cc(C(C)C)c(O)c(C(C)C)c2)CC1 [Cpd-66]	20 to 40 mg/kg	0.22 min	40.40 min	115.20 min	20 to 40 mg/kg
COC(=O)N(c1ccccc1)N1CCN(c2cc(C(C)C)c(O)c(C(C)C)c2)CC1 [Cpd-45]	5 to 10 mg/kg	0.38 to 0.58 min	9.45 to 21.03 min	21.22 to 30.92 min	5 to 10 mg/kg
CCOC(=O)N(c1cccc(Cl)c1)N1CCN(c2cc(C(C)C)c(O)c(C(C)C)c2)CC1 [Cpd-61]	10 to 20 mg/kg	0.55 to 1.25 min	4.15 to 41.88 min	89.98 to 162.23 min	10 to 20 mg/kg
CCOC(=O)N(c1ccc(Cl)cc1)N1CCN(c2cc(C(C)C)c(O)c([C@H](C)C3CC3)c2)CC1 [Cpd-73]	10 to 20 mg/kg	0.83 to 1.65 min	8.78 to 25.28 min	44.83 to 119.62 min	20 to 40 mg/kg
CCOC(=O)N(c1cccc(OC)c1)N1CCN(c2cc(C(C)C)c(O)c(C(C)C)c2)CC1 [Cpd-63]	10 to 20 mg/kg	0.18 to 0.50 min	6.92 to 33.82 min	50.33 to 193.58 min	20 to 40 mg/kg
CCOC(=O)N(c1ccccc1)N1CCN(c2cc(C(C)C)c(O)c(C(C)C3CC3)c2)CC1 (centres unmarked) [Cpd-53]	< 5 mg/kg	0.47 to 1.27 min	2.00 to 37.20 min	27.75 to 167.40 min	5 to 10 mg/kg
CCOC(=O)C1(c2ccccc2)CCN(c2cc(C(C)C)c(O)c(C(C)C)c2)CC1 [Cpd-21]	< 5 mg/kg	1.35 min	1.32 min	20.10 min	< 5 mg/kg
CCC(=O)N(c1ccccc1)N1CCN(c2cc(C(C)C)c(O)c(C(C)C)c2)CC1 [Cpd-46]	5 to 10 mg/kg	1.58 min	2.17 min	12.95 min	5 to 10 mg/kg
CCC(=O)N(c1ccccc1)C1CCN(c2cc(C(C)C)c(O)c(C(C)C)c2)CC1 [Cpd-1]	< 5 mg/kg	0.38 to 0.62 min	6.27 to 10.78 min	19.02 to 22.97 min	< 5 mg/kg
CCOC(=O)C1(c2ccc(Cl)cc2Cl)CCN(c2cc(C(C)C)c(O)c(C(C)C)c2)CC1 [Cpd-28]	20 to 40 mg/kg	0.73 to 1.02 min	2.97 to 12.00 min	31.98 to 218.72 min	20 to 40 mg/kg
CCOC(=O)C1(c2cccs2)CCN(c2cc(C(C)C)c(O)c(C(C)C)c2)CC1 [Cpd-24]	5 to 10 mg/kg	0.85 min	11.60 min	21.70 min	5 to 10 mg/kg
CCOC(=O)N(c1ccc(OC)cc1)N1CCN(c2cc(C(C)C)c(O)c([C@@H](C)C3CC3)c2)CC1 [Cpd-107]	5 to 10 mg/kg	0.42 to 1.52 min	0.72 to 34.8 min	34.37 to 73.58 min	10 to 20 mg/kg
CCOC(=O)N(Cc1ccsc1)N1CCN(c2cc(C(C)C)c(O)c(C(C)C)c2)CC1 [Cpd-125]	10 to 20 mg/kg	1.22 min	6.87 min	53.93 min	10 to 20 mg/kg
